Data taken from patent publication US10168342B2, “Lipid probes and uses thereof” (THE SCRIPPS RESEARCH INSTITUTE, priority 2015, dated 2019).

How the values were obtained:
Assay in all cases: isoTOP-ABPP mapping of AEA-DA-modified peptides in Neuro2a cells
Format in all cases: cell-based
[1] = target: T1, AEA-DA-modified peptides in Neuro2a cells (Mus musculus, UniProt P19157); conditions: AEA-DA-modified peptide GSTP1 P19157 104-117, SEQ ID NO 46; probe 100 μM, 12 replicates
T1 construct: endogenous in cells; host or cells: Neuro2a
T1 sequence (P19157 whole entry): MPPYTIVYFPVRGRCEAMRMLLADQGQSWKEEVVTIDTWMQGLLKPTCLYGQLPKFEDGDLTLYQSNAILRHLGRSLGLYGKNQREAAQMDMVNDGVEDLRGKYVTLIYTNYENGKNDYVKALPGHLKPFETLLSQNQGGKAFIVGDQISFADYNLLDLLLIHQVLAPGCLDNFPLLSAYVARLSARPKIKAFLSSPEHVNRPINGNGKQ

[2] = target: T2, AEA-DA-modified peptides in Neuro2a cells (Mus musculus, UniProt P61161); conditions: AEA-DA-modified peptide ACTR2 P61161 259-295, SEQ ID NO 5; probe 100 μM, 12 replicates
T2 construct: endogenous in cells; host or cells: Neuro2a

[3] = target: T3, AEA-DA-modified peptides in Neuro2a cells (Mus musculus, UniProt Q91WC3); conditions: AEA-DA-modified peptide ACSL6 Q91WC3 408-420, SEQ ID NO 3; probe 100 μM, 12 replicates
T3 construct: endogenous in cells; host or cells: Neuro2a
T3 sequence (Q91WC3 whole entry): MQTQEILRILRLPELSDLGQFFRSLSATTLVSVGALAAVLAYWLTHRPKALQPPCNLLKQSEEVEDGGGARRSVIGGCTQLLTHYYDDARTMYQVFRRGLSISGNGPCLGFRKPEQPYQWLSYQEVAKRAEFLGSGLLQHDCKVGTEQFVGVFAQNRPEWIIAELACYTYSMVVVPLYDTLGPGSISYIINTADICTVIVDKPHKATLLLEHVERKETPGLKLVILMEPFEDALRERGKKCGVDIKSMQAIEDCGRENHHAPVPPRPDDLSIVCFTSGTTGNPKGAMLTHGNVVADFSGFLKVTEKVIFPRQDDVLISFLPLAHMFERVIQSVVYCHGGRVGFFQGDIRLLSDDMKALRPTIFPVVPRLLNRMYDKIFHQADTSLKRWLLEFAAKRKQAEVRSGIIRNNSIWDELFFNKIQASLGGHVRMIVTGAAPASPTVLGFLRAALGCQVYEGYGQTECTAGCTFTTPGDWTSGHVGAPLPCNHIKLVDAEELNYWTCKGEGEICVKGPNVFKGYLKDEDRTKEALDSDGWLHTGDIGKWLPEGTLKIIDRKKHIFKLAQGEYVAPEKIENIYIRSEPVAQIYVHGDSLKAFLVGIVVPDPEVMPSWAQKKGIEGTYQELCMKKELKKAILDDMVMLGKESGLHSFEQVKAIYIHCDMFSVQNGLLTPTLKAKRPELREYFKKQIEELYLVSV

[4] = target: T4, AEA-DA-modified peptides in Neuro2a cells (Mus musculus, UniProt Q8VDN2); conditions: AEA-DA-modified peptide ATP1A1 Q8VDN2 360-386, SEQ ID NO 17; probe 100 μM, 12 replicates
T4 construct: endogenous in cells; host or cells: Neuro2a

[5] = target: T5, AEA-DA-modified peptides in Neuro2a cells (Mus musculus, UniProt O09061); conditions: AEA-DA-modified peptide PSMB1 O09061 127-146, SEQ ID NO 90; probe 100 μM, 12 replicates
T5 construct: endogenous in cells; host or cells: Neuro2a
T5 sequence (O09061 28-240): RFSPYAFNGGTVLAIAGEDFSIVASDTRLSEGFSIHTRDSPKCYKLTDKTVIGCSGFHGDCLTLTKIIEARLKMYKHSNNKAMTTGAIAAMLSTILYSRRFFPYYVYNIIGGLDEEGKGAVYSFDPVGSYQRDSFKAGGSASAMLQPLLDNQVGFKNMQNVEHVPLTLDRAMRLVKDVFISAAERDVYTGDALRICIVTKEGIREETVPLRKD

[6] = target: T6, AEA-DA-modified peptides in Neuro2a cells (Mus musculus, UniProt Q60716); conditions: AEA-DA-modified peptide P4HA2 Q60716 177-197, SEQ ID NO 76; probe 100 μM, 12 replicates
T6 construct: endogenous in cells; host or cells: Neuro2a
T6 sequence (Q60716 24-537): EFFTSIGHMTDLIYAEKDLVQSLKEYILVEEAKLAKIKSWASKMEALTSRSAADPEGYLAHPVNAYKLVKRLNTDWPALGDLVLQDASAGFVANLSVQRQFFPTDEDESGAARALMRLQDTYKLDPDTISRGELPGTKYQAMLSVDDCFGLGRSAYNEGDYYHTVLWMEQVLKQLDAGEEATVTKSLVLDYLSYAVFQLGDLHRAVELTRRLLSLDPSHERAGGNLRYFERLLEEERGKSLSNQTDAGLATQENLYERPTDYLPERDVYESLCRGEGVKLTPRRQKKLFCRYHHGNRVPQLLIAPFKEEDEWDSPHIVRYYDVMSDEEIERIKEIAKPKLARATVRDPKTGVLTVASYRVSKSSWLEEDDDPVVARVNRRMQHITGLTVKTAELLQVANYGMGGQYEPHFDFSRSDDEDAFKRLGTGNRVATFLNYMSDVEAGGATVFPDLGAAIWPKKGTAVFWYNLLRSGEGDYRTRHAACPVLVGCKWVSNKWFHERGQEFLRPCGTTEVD

[7] = target: T7, AEA-DA-modified peptides in Neuro2a cells (Mus musculus, UniProt Q8R0X7); conditions: probe 100 μM, 12 replicates
T7 construct: endogenous in cells; host or cells: Neuro2a
T7 sequence (Q8R0X7 whole entry): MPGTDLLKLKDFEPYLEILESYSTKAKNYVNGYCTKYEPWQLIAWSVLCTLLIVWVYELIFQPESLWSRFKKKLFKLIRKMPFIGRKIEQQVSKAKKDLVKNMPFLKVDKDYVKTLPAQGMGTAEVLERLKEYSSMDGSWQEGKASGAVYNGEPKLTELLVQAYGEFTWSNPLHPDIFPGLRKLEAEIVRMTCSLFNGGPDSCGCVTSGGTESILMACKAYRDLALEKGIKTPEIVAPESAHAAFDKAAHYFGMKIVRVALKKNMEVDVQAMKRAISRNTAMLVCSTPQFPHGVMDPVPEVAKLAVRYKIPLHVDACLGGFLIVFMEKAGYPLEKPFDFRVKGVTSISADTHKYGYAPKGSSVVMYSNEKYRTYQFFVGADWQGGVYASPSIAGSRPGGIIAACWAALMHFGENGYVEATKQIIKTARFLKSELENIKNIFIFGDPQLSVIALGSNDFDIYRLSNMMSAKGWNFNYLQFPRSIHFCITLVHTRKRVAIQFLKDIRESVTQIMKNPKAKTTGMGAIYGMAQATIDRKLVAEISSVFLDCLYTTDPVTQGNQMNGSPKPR

[8] = target: T8, AEA-DA-modified peptides in Neuro2a cells (Mus musculus, UniProt P08113); conditions: AEA-DA-modified peptide HSP90B1 P08113 664-672, SEQ ID NO 51; probe 100 μM, 12 replicates
T8 construct: endogenous in cells; host or cells: Neuro2a
T8 sequence (P08113 22-802): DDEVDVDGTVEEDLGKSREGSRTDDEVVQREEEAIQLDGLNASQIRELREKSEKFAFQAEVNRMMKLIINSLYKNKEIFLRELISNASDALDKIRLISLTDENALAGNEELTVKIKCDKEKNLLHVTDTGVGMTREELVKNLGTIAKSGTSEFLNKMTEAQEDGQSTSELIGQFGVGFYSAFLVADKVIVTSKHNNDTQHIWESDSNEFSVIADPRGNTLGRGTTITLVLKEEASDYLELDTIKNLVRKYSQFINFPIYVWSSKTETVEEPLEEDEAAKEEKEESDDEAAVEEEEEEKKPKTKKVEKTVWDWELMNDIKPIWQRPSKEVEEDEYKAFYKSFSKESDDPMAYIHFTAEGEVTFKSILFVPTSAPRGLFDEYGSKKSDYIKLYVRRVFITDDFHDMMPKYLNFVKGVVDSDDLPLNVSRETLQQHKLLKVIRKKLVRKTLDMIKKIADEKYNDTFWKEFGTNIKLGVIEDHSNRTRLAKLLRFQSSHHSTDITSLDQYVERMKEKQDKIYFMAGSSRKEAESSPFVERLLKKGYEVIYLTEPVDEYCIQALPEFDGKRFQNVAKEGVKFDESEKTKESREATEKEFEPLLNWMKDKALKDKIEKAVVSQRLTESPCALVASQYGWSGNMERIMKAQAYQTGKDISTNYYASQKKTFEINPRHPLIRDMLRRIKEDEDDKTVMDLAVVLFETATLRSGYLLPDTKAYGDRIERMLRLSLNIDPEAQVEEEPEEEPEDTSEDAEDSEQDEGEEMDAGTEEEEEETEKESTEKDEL

[9] = target: T9, AEA-DA-modified peptides in Neuro2a cells (Mus musculus, UniProt Q791V5); conditions: AEA-DA-modified peptide MTCH2 Q791V5 91-112, SEQ ID NO 62; probe 100 μM, 12 replicates
T9 construct: endogenous in cells; host or cells: Neuro2a
T9 sequence (Q791V5 whole entry): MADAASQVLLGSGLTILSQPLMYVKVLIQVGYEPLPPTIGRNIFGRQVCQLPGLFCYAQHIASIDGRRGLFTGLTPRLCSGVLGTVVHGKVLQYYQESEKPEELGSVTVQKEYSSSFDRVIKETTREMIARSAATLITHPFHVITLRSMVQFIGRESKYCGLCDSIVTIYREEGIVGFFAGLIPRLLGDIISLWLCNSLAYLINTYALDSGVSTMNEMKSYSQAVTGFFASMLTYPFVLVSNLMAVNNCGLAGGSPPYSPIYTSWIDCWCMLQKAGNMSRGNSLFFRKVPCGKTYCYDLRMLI

[10] = target: T10, AEA-DA-modified peptides in Neuro2a cells (Mus musculus, UniProt Q80UU9); conditions: probe 100 μM, 12 replicates
T10 construct: endogenous in cells; host or cells: Neuro2a
T10 sequence (Q80UU9 whole entry): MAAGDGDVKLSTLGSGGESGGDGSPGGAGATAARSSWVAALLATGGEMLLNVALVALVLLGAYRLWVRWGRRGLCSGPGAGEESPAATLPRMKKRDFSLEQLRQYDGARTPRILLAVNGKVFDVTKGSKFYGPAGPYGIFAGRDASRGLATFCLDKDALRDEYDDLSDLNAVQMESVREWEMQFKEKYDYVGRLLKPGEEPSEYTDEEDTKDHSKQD

[11] = target: T11, AEA-DA-modified peptides in Neuro2a cells (Mus musculus, UniProt P42208); conditions: AEA-DA-modified peptide SEPT2 P42208 78-92, SEQ ID NO 98; probe 100 μM, 12 replicates
T11 construct: endogenous in cells; host or cells: Neuro2a
T11 sequence (P42208 whole entry): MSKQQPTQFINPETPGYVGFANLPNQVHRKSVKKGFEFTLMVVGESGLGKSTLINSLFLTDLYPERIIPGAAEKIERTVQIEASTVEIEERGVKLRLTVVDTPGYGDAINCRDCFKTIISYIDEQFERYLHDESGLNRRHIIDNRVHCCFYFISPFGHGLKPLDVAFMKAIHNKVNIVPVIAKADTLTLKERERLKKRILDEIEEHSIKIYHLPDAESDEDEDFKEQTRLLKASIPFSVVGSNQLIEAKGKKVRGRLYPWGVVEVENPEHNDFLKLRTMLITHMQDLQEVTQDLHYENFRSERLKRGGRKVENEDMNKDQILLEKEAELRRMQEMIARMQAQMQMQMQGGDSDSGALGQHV

With `C#CCCCC1(CC/C=C\C/C=C\C/C=C\CCCC(=O)NCCO)N=N1` [AEA-DA, (5Z,8Z,11Z)-N-(2-hydroxyethyl)-14-(3-(pent-4-yn-1-yl)-3H-diazirin-3-yl)tetradeca-5,8,11-trienamide] the Times observed [1] was 4, the Times observed [2] was 2 and the Times observed [3] was 6. The Times observed [4] was 2, the Times observed [5] was 8 and the Times observed [6] was 3. It also gave a Times observed ([7]; AEA-DA-modified peptide SGPL1 Q8R0X7 9-26, SEQ ID NO 100) of 4, a Times observed ([7]; AEA-DA-modified peptide SGPL1 Q8R0X7 519-536, SEQ ID NO 99) of 12 and a Times observed [8] of 4. The Times observed [9] was 2, the Times observed ([10]; AEA-DA-modified peptide PGRMC2 Q80UU9 74-92, SEQ ID NO 84) was 2 and the Times observed ([10]; AEA-DA-modified peptide PGRMC2 Q80UU9 130-144, SEQ ID NO 83) was 9. The Times observed [11] was 2.
